Data: patent publication EP0101234A1, “Therapeutic agent” (The Boots Company PLC, priority 1982, dated 1984)
Counter-ions that a name gives are not always drawn. Like-named read-outs stand apart in the source and are kept apart here.

System: uptake systems for 5HT in the brain
Assay: in vivo inhibition of p-chloroamphetamine-induced depletion of brain 5HT
Design: species or system Charles River CD rats
Settings: Rattus norvegicus, read-out: percentage inhibition of depletion (Ib)
Method: Once inside the neuron the depletor agent displaces the amine transmitter from its storage sites into the cytoplasm of the cell where it is metabolised by monoamine oxidase. […] The levels of the amine transmitter are preserved by pretreatment of the uptake sites with an uptake inhibitor. […] After 30 minutes a solution of p-chloroamphetamine in. distilled water was injected intraperitoneally at a dose of 5 mg/kg. After a further four hours the animals were sacrificed and the 5HT level in the brain determined fluorometrically.
The 5HT level in the brain was also determined in Control animals which received only vehicle solutions and for animals which received vehicle orally instead of the test compound followed by intraperitoneal injections of the depleting agent. These latter animals are referred to herein as depleted controls. The percentage inhibition. of depletion (Ib) was calculated using the formula

[1] = rats, 30 mg/kg orally, p-chloroamphetamine 5 mg/kg i.p. after 30 minutes, brain 5HT level after a further four hours

| Compound | inhibition at 30 mg/kg | inhibition at 30 mg/kg [1] |
| --- | --- | --- |
| CN(C)CCCN1c2ccccc2CCc2ccc(Cl)cc21 [Clomipramine] | 8% | – |
| CN(C)CCC=C1c2ccccc2CSc2ccc(C#N)cc21 [Product of Example 1, 11-(3-dimethylaminopropylidene)-6,11-dihydrodibenzo(b,e)thiepin-2-carbonitrile hydrobromide] | – | 82% |
| CN(C)CCCN1c2ccccc2CCc2ccccc21 [Imipramine] | 18% | – |
| CN(C)CCC=C1c2cc(C#N)ccc2CSc2ccccc21 [Product of Example A, 11-(3-Dimethyl-aminopropylidene)6,1i-dihydrodibenzo[b,e]thiepin-9-carbonitrile hydrobromide] | – | 0% |
| CN(C)CC/C=C1\c2ccccc2CSc2ccccc21 [Dothiepin] | – | 9% |
